Results taken from patent US20230146455A1, “TREATMENT OF INFLAMMATORY DISEASES WITH PEPTIDES AND PHARMACEUTICAL COMPOSITIONS” (Yuyu Pharma, Inc., priority 2020, published 2023).
Where “and” joins values, the source holds several entries; their conditions need not be identical. Identical values can stand only once. Where a SMILES comes first, the peptide text is derived from it. [ ]: non-standard residue; d: D form. Hyp = O=C(O)[C@@H]1C[C@@H](O)CN1

System: CCL5/RANTES
Assay: Example 9 Luminex, LPS hPBMCs: CCL5/RANTES
Type: cell-based, human
Conditions: PBMC + LPS(5 ug/ml)
Procedure: Treatment Human PBMCs were pretreated with YY-101, YDE-011 and YDE-043 or reference compound; Xiidra® at various concentration (ranging from 1 nM to 100 uM) for 2 h before stimulation. An equal volume of 0.5% DMSO was used as a vehicle control. Then, the cells were treated with LPS at 5 ug/ml. The supernatants from treated cells were harvested at 24 h and placed in a 96 well for Luminex cytokine & chemokine profiling using a Luminex 200 multiplex assay (Luminex; R&D system, USA).
The main study arm with triplicate wells per group in a 24-well plate: • 1. Blank • 2. PBMC: 0.5% DMSO • 3. PBMC+LPS (5 ug/ml) • 4. PBMC+YY-101 100 uM • 5. PBMC+YY-101 10 uM • 6. PBMC+YY-101 1 uM • 7. PBMC+YY-101 0.1 uM • 8. PBMC+YY-101 0.01 uM • 9. PBMC+LPS (5 ug/ml)+Xiidra®100 uM • 10. PBMC+LPS (5 ug/ml)+Xiidra® 10 uM • 11. PBMC+LPS (5 ug/ml)+Xiidra® 1 uM • 12. PBMC+LPS (5 ug/ml)+Xiidra®0.1 uM • 13. PBMC+LPS (5 ug/ml)+Xiidra®0.01 uM • 14. PBMC+LPS (5 ug/ml)+Xiidra®0.001 uM • 15. PBMC+LPS (5 ug/ml)+YY-101 100 uM • 16. PBMC+LPS (5 ug/ml)+YY-101 10 uM • 17. PBMC+LPS (5 ug/ml)+YY-101 1 uM • 18. PBMC+LPS (5 ug/ml)+YY-101 0.1 uM • 19. PBMC+LPS (5 ug/ml)+YY-101 0.01 uM • 20. PBMC+LPS (5 ug/ml)+YY-101 0.001 uM • 21. PBMC+LPS (5 ug/ml)+YDE-011 100 uM • 22. PBMC+LPS (5 ug/ml)+YDE-011 10 uM • 23. PBMC+LPS (5 ug/ml)+YDE-011 1 uM • 24. PBMC+LPS (5 ug/ml)+YDE-011 0.1 uM • 25. PBMC+LPS (5 ug/ml)+YDE-011 0.01 uM • 26. PBMC+LPS (5 ug/ml)+YDE-011 0.001 uM • 27. PBMC+LPS (5 ug/ml)+YDE-043 100 uM • 28. PBMC+LPS (5 ug/ml)+YDE-043 10 uM • 29. PBMC+LPS (5 ug/ml)+YDE-043 1 uM • 30. PBMC+LPS (5 ug/ml)+YDE-043 0.1 uM • 31. PBMC+LPS (5 ug/ml)+YDE-043 0.01 uM • 32. PBMC+LPS (5 ug/ml)+YDE-043 0.001 uM
Multiplex assay was used to measure 30 cytokines and chemokines. The 1:2, 1:10 and 1:200 diluted cell supernatant and serial dilution of the standard were dispensed into a 96 well plate at 50 ul/well. Then, the pre-mixed cocktail of antibody-coated magnetic beads was dispensed at 50 ul/well and incubated at room temperature for 2 h in a horizontal orbital microplate shaker at 800±500 rpm. The beads were washed using a magnetic device to prevent loss. The biotin-antibody was dispensed in 50 ul of each well and incubated at room temperature for 1 h in a shaker at 800±500 rpm. After washing, streptavidin-PE was added at 50 ul/well and incubated at room temperature for 30 min in a shaker under the same conditions. Finally, after washing, wash buffer (100 ul/well) was added to the plate and incubated in a shaker for 2 min. The Luminex™ 200 setting were set according to the manufacturer's protocol. The data was calculated with a standard five-parameter logistic nonlinear regression analysis of the data (xPonent software 4.2, USA). The levels of cytokine/chemokine are normalized to the live cell counts (1×10^5 cells/mL) and presented as concentrations per mL (pg/mL or ng/mL).

[1] = test article 0.001 uM, single replicates (1st, 2nd, 3rd)
[2] = test article 0.01 uM, single replicates (1st, 2nd, 3rd)
[3] = test article 0.1 uM, single replicates (1st, 2nd, 3rd)
[4] = test article 1 uM, single replicates (1st, 2nd, 3rd)
[5] = test article 10 uM, single replicates (1st, 2nd, 3rd)
[6] = test article 100 uM, single replicates (1st, 2nd, 3rd)

SMILES: CC(C)C[C@H](NC(=O)CNC(=O)[C@H](CC(C)C)NC(=O)[C@H](CCC(N)=O)NC(=O)CNC(=O)[C@@H]1C[C@@H](O)CN1)C(=O)N[C@@H](C)C(=O)NCC(=O)N1CCC[C@H]1C(=O)N[C@@H](CCCCN)C(=O)O [YDE-011] (H-[Hyp]GQLGLAGPK-OH)
- Concentration (CCL5/RANTES) (test article 0.001 uM, Mean): 209.7 pg/mL
- MFI (Bead name: CCL5/RANTES) (test article 0.001 uM, Mean): 477.2
- conc/live cell (CCL5/RANTES) (test article 0.001 uM, Mean): 39.5 pg/10^5
- Concentration (CCL5/RANTES) [1]: 202.5 pg/ml (2×) and 224.1 pg/ml
- MFI (Bead name: CCL5/RANTES) [1]: 455.5 (2×) and 520.5
- conc/live cell (CCL5/RANTES) [1]: 45.0 pg/10^5 and 34.9 pg/10^5 and 38.6 pg/10^5
- Concentration (CCL5/RANTES) (test article 0.01 uM, Mean): 215.3 pg/mL
- MFI (Bead name: CCL5/RANTES) (test article 0.01 uM, Mean): 494.0
- conc/live cell (CCL5/RANTES) (test article 0.01 uM, Mean): 37.1 pg/10^5
- Concentration (CCL5/RANTES) [2]: 216.5 pg/mL and 220.2 pg/mL and 209.4 pg/mL
- MFI (Bead name: CCL5/RANTES) [2]: 497.5 and 508.5 and 476.0
- conc/live cell (CCL5/RANTES) [2]: 34.9 pg/10^5 and 43.2 pg/10^5 and 33.2 pg/10^5
- Concentration (CCL5/RANTES) (test article 0.1 uM, Mean): 207.0 pg/mL
- MFI (Bead name: CCL5/RANTES) (test article 0.1 uM, Mean): 468.8
- conc/live cell (CCL5/RANTES) (test article 0.1 uM, Mean): 36.3 pg/10^5
- Concentration (CCL5/RANTES) [3]: 206.7 pg/mL and 205.2 pg/mL and 209.0 pg/mL
- MFI (Bead name: CCL5/RANTES) [3]: 468.0 and 463.5 and 475.0
- conc/live cell (CCL5/RANTES) [3]: 31.3 pg/10^5 and 41.0 pg/10^5 and 36.7 pg/10^5
- Concentration (CCL5/RANTES) (test article 1 uM, Mean): 199.8 pg/mL
- MFI (Bead name: CCL5/RANTES) (test article 1 uM, Mean): 447.5
- conc/live cell (CCL5/RANTES) (test article 1 uM, Mean): 39.8 pg/10^5
- Concentration (CCL5/RANTES) [4]: 205.5 pg/mL and 199.5 pg/mL and 194.4 pg/mL
- MFI (Bead name: CCL5/RANTES) [4]: 464.5 and 446.5 and 431.5
- conc/live cell (CCL5/RANTES) [4]: 37.4 pg/10^5 and 41.6 pg/10^5 and 40.5 pg/10^5
- Concentration (CCL5/RANTES) (test article 10 uM, Mean): 204.9 pg/mL
- MFI (Bead name: CCL5/RANTES) (test article 10 uM, Mean): 462.7
- conc/live cell (CCL5/RANTES) (test article 10 uM, Mean): 38.9 pg/10^5
- Concentration (CCL5/RANTES) [5]: 214.7 pg/mL and 201.8 pg/mL and 198.1 pg/mL
- MFI (Bead name: CCL5/RANTES) [5]: 492.0 and 453.5 and 442.5
- conc/live cell (CCL5/RANTES) [5]: 39.8 pg/10^5 and 34.8 pg/10^5 and 42.1 pg/10^5
- Concentration (CCL5/RANTES) (test article 100 uM, Mean): 161.8 pg/mL
- MFI (Bead name: CCL5/RANTES) (test article 100 uM, Mean): 338.5
- conc/live cell (CCL5/RANTES) (test article 100 uM, Mean): 26.7 pg/10^5
- Concentration (CCL5/RANTES) [6]: 170.4 pg/mL and 153.5 pg/mL and 161.5 pg/mL
- MFI (Bead name: CCL5/RANTES) [6]: 362.5 and 315.5 and 337.5
- conc/live cell (CCL5/RANTES) [6]: 27.9 pg/10^5 and 25.2 pg/10^5 and 26.9 pg/10^5
